Experimental data reported in article PMC8283942 (Journal of the American Chemical Society, 2021).

Biological target: SsTyrH (heme-dependent L-tyrosine hydroxylase)
Experiment: UV–vis substrate titration
Type: binding, Streptomyces sclerotialus

Structure (SMILES): N[C@@H](Cc1ccc(O)cc1)C(=O)O [Tyr, L-tyrosine]
- Kd: 109 ± 5 µM
